In ChEMBL document CHEMBL3525934 (Drug Metab Dispos, 2013) one finds Drug metabolism data, which are given here for one compound.

Assay type in all cases: ADME
Details in all cases: 0.5 h

Series [1] deals with T1, Cytochrome P450 2C18 (Homo sapiens, UniProt P33260).
T1 sequence (P33260 whole entry): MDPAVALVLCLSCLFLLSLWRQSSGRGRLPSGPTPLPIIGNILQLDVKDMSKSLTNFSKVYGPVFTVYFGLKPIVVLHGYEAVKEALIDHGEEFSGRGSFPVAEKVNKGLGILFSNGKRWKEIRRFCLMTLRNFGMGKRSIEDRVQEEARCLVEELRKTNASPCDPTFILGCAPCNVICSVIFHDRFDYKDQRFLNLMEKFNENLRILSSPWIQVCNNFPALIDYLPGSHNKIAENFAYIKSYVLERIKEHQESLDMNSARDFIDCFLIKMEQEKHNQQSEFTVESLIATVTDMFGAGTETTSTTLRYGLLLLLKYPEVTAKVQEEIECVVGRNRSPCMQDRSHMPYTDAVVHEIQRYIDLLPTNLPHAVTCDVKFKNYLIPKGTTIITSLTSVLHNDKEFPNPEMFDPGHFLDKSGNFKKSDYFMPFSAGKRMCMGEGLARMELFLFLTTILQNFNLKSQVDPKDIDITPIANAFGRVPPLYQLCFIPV
In words: Drug metabolism in supersomes expressing human recombinant CYP2C18 assessed as enzyme-mediated clozapine-N-oxide metabolite formation at 10 uM after 30 mins measured per nmol of P450 by HPLC analysis.

For another series, the target named is T2, Cytochrome P450 2C8 (Homo sapiens, UniProt P10632).
T2 sequence (P10632 whole entry): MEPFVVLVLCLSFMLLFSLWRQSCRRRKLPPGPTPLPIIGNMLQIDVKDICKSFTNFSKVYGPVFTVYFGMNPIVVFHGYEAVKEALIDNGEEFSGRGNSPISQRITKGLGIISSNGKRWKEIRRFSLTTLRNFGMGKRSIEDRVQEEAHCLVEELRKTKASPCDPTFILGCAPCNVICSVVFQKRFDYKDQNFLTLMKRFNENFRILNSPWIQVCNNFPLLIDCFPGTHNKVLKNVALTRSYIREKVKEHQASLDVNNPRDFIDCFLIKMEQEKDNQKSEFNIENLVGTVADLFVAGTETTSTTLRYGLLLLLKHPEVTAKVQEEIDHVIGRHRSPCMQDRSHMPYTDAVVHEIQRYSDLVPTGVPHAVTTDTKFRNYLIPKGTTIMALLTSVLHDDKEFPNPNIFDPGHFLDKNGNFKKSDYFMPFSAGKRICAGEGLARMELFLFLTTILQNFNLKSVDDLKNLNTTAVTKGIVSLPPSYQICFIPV
In words: Drug metabolism in supersomes expressing human recombinant CYP2C8 assessed as enzyme-mediated N-desmethylclozapine metabolite formation at 100 uM after 30 mins measured per nmol of P450 by HPLC analysis.

Series [2] has as its target T3, Cytochrome P450 1B1 (Homo sapiens, UniProt Q16678).
T3 sequence (Q16678 whole entry): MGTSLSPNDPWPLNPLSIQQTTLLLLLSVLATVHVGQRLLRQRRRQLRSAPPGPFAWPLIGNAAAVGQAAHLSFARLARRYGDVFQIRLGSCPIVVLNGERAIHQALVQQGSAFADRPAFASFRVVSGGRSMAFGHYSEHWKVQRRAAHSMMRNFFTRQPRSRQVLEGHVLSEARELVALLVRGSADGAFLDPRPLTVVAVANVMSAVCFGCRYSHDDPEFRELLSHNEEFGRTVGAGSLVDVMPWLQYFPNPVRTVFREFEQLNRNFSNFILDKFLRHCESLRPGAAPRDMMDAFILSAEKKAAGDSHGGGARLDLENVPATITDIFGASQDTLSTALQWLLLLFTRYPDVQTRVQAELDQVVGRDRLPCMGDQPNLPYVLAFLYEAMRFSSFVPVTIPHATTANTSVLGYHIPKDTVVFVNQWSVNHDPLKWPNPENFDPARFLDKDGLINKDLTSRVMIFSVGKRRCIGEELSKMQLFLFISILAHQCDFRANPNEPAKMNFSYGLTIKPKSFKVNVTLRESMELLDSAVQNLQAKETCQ
In words: Drug metabolism in supersomes expressing human recombinant CYP1B1 assessed as enzyme-mediated clozapine-N-oxide metabolite formation at 100 uM after 30 mins measured per nmol of P450 by HPLC analysis.

The target of the next series is Cytochrome P450 2C9 (Homo sapiens, UniProt P11712). In words: Drug metabolism in supersomes expressing human recombinant CYP2C9 assessed as enzyme-mediated N-desmethylclozapine metabolite formation at 10 uM after 30 mins measured per nmol of P450 by HPLC analysis.
Series [3] deals with T3, Cytochrome P450 1B1. In words: Drug metabolism in supersomes expressing human recombinant CYP1B1 assessed as enzyme-mediated total GSH conjugate formation at 100 uM after 30 mins measured per nmol of P450 by HPLC analysis in presence of GSH and hGST P1-1.
In series [4] the target is T1, Cytochrome P450 2C18. In words: Drug metabolism in supersomes expressing human recombinant CYP2C18 assessed as enzyme-mediated cyanide adduct formation at 100 uM after 30 mins measured per nmol of P450 by HPLC analysis in presence of KCN.
The next series deals with T4, Cytochrome P450 1A1 (Homo sapiens, UniProt P04798).
T4 sequence (P04798 whole entry): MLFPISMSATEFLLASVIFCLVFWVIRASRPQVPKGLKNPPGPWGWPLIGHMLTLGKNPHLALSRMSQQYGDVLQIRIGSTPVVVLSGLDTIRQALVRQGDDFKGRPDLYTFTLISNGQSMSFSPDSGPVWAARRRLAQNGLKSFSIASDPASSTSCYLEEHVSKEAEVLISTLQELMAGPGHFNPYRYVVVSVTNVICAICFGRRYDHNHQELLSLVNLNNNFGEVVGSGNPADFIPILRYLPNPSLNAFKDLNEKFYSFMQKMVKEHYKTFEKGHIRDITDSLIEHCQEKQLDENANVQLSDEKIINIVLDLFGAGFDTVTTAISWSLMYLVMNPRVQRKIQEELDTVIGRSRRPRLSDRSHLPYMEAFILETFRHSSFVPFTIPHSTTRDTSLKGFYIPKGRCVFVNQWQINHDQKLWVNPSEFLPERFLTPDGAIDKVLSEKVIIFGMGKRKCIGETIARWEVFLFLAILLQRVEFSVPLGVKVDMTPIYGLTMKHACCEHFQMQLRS
In words: Drug metabolism in supersomes expressing human recombinant CYP1A1 assessed as enzyme-mediated N-desmethylclozapine metabolite formation at 10 uM after 30 mins measured per nmol of P450 by HPLC analysis.

Sequence of Cytochrome P450 2C9 (P11712 whole entry): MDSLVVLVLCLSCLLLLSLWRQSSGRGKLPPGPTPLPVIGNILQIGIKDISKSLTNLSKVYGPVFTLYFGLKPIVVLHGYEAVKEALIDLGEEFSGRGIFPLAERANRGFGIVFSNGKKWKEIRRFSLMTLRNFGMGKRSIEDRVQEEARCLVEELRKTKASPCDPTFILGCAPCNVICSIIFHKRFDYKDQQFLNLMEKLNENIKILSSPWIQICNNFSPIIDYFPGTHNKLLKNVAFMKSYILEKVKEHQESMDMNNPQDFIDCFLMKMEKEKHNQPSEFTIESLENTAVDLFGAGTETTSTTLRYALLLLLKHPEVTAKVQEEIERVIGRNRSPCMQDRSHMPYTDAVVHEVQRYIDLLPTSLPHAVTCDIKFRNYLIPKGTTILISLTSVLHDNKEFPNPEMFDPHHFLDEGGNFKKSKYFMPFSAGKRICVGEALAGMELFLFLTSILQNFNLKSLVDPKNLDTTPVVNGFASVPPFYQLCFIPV

As to `CN1CCN(C2=Nc3cc(Cl)ccc3Nc3ccccc32)CC1` [CLOZAPINE], the Drug metabolism at Cytochrome P450 2C18 [1] turned out to be 0.025 nmol/min/nmol P450; on Cytochrome P450 2C8 it was 0.89 nmol/min; at Cytochrome P450 1B1 [2], 0.64 nmol/min/nmol P450; at Cytochrome P450 2C9, 0.33 nmol/min; on Cytochrome P450 1B1 [3] it was 0.15 nmol/min; on Cytochrome P450 2C18 [4] it was 0.41 nmol/min. Also, the Drug metabolism on Cytochrome P450 1A1 is listed as 0.64 nmol/min.
